Results: US20090298866A1, “Indole Compounds” (priority 2006, published 2009)
Structures can show the parent of a compound that is named as a salt.

Legend:
human EP3 receptor = target: T1, human EP3 receptor (Homo sapiens, UniProt P43115); assay: human EP3 calcium mobilisation assay; type: cell-based; conditions: heading: functional pKi; human EP3, CHO-K1 cells, PGE2-induced calcium mobilisation; averages of a number of experiments
T1 construct: expressed in transfected cells; host or cells: CHO-K1
T1 sequence (P43115 1-390): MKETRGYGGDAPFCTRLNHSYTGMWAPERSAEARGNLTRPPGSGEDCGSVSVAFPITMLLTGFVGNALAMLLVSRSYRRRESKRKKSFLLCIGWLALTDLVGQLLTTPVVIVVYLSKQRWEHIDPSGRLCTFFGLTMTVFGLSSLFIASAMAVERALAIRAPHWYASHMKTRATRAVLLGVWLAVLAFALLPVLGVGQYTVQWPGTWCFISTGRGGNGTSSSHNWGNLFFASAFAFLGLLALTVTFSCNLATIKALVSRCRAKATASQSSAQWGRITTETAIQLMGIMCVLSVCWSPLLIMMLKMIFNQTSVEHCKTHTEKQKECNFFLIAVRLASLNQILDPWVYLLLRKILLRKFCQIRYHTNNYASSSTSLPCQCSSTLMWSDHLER
Description: (§1) Briefly, the antagonist properties of compounds are assessed by their ability to inhibit the mobilisation of intracellular calcium ([Ca^2+]i) in response to activation of EP1 or EP3 receptors by the natural agonist hormone prostaglandin E2 (PGE2). Increasing concentrations of antagonist reduce the amount of calcium that a given concentration of PGE2 can mobilise. The net effect is to displace the PGE2 concentration-effect curve to higher concentrations of PGE2. The amount of calcium produced is assessed using a calcium-sensitive fluorescent dye such as Fluo-4, AM and a suitable instrument such as a Fluorimetric Imaging Plate Reader (FLIPR). Increasing amounts of [Ca^2+]i produced by receptor activation increase the amount of fluorescence produced by the dye and give rise to an increasing signal. The signal may be detected using the FLIPR instrument and the data generated may be analysed with suitable curve-fitting software.
(§2) The human EP1 or EP3 calcium mobilisation assay (hereafter referred to as ‘the calcium assay’) utilises Chinese hamster ovary-K1 (CHO-K1) cells into which a stable (pCIN; BioTechniques 20 (1996): 102-110) vector containing either EP1 or EP3 cDNA has previously been transfected. Cells are cultured in suitable flasks containing culture medium such as DMEM:F-12 supplemented with 10% v/v foetal calf serum, 2 mM L-glutamine, 0.25 mg/ml geneticin, 100 μM flurbiprofen and 10 μg/ml puromycin.
(§3) For assay, cells are harvested using a proprietary reagent that dislodges cells such as Versene. Cells are re-suspended in a suitable quantity of fresh culture media for introduction into a 384-well plate. Following incubation for 24 hours at 37° C. the culture media is replaced with a medium containing Fluo-4 and the detergent pluronic acid, and a further incubation takes place. Concentrations of compounds are then added to the plate in order to construct concentration-effect curves. This may be performed on the FLIPR in order to assess the agonist properties of the compounds. Concentrations of PGE2 are then added to the plate in order to assess the antagonist properties of the compounds.
(§4) The data so generated may be analysed by means of a computerised curve-fitting routine. The concentration of compound that elicits a half-maximal inhibition of the calcium mobilisation induced by PGE2 (pIC50) may then be estimated.

human EP1 receptor [1] = target: T2, human EP1 receptor (Homo sapiens, UniProt P34995); assay: Binding assay for the human prostanoid EP1 receptor (competition with [3H]-PGE2); conditions: binding to human EP1 receptor, CHO-K1 membranes, [3H]-PGE2 3 nM; averages of a number of experiments
T2 construct: expressed in transfected cells; host or cells: CHO-K1
T2 sequence (P34995 1-402): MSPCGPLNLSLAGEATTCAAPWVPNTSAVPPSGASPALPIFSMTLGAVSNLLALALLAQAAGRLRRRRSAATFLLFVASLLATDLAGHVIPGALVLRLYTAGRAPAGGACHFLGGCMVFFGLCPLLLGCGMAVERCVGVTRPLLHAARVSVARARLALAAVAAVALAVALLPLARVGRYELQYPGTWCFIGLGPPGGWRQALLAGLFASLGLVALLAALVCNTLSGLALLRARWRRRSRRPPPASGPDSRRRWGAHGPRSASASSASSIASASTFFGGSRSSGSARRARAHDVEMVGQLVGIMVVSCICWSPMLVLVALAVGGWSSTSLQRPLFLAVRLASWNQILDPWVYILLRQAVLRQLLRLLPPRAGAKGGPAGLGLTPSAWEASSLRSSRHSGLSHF
Description: Competition assay using [^3H]-PGE2.
Compound potencies are determined using a radioligand binding assay. In this assay compound potencies are determined from their ability to compete with tritiated prostaglandin E2 ([^3H]-PGE2) for binding to the human EP1 receptor. This assay utilises Chinese hamster ovary-K1 (CHO-K1) cells into which a stable vector containing the EP1 cDNA has previously been transfected. Cells are cultured in suitable flasks containing culture medium such as DMEM:F-12 supplemented with 10% v/v foetal calf serum, 2 mM L-glutamine, 0.25 mg/ml geneticin, 10 μg/ml puromycin and 10 μM indomethacin.
Cells are detached from the culture flasks by incubation in calcium and magnesium free phosphate buffered saline containing 1 mM disodium ethylenediaminetetraacetic acid (Na2EDTA) and 10 μM indomethacin for 5 min. The cells are isolated by centrifugation at 250×g for 5 mins and suspended in an ice cold buffer such as 50 mM Tris, 1 mM Na2EDTA, 140 mM NaCl, 10 μM indomethacin (pH 7.4). The cells are homogenised using a Polytron tissue disrupter (2×10 s burst at full setting), centrifuged at 48,000×g for 20 mins and the pellet containing the membrane fraction is washed (optional) three times by suspension and centrifugation at 48,000×g for 20 mins. The final membrane pellet is suspended in an assay buffer such as 10 mM 2-[N-morpholino]ethanesulphonic acid, 1 mM Na2EDTA, 10 mM MgCl2 (pH 6). Aliquots are frozen at −80° C. until required.
For the binding assay the cell membranes, competing compounds and [^3H]-PGE2 (3 nM final assay concentration) are incubated in a final volume of 100 μl for 30 min at 30° C. All reagents are prepared in assay buffer. Reactions are terminated by rapid vacuum filtration over GF/B filters using a Brandell cell harvester. The filters are washed with ice cold assay buffer, dried and the radioactivity retained on the filters is measured by liquid scintillation counting in Packard TopCount scintillation counter.
The data are analysed using non linear curve fitting techniques to determine the concentration of compound producing 50% inhibition of specific binding (IC50).

human EP1 receptor [2] = target: T2, human EP1 receptor; assay: human EP1 calcium mobilisation assay; type: cell-based; conditions: human EP1, CHO-K1 cells, PGE2-induced calcium mobilisation; averages of a number of experiments; read-out: functional pKi (converted)
Description: as §1, §2, §3, §4

[3] = tested on: rat model of chronic constriction injury; conditions: Anesthesia and Analgesia 2001, 93, 1012-7; cited from earlier work
[4] = tested on: rodent model of post-operative pain; conditions: Anesthesia and Analgesia 2001, 92, 233-238; cited from earlier work

Row | Compound | Ki (human EP3 receptor) [µM] | IC50 (human EP1 receptor [1]) [nM] | also measured
1 | CC(C)Cc1cn(-c2nc(NC(=O)c3cccnc3)cs2)c2cc(Cl)ccc12 [Example 6, N-[2-(6-Chloro-3-isobutyl-1H-indol-1-yl)-1,3-thiazol-4-yl]nicotinamide] | > 3.16 | – | –
2 | CC(C)Cc1cn(-c2nc(NC(=O)c3ccc(CO)cc3)cs2)c2cc(Cl)ccc12 [Example 9, N-[2-(6-Chloro-3-isobutyl-1H-indol-1-yl)-1,3-thiazol-4-yl]-4-(hydroxymethyl)benzamide] | > 3.16 | – | –
3 | CCCNC(=O)Nc1csc(-n2cc(CC(C)C)c3ccc(Cl)cc32)n1 [Example 10, N-[2-(6-Chloro-3-isobutyl-1H-indol-1-yl)-1,3-thiazol-4-yl]-N′-propylurea] | > 3.16 | – | –
4 | CC(C)Cc1cn(-c2nc(C(=O)Nc3ccncc3)cs2)c2cc(Cl)ccc12 [Example 25, 2-[6-Chloro-3-isobutyl-1H-indol-1-yl]-N-4-pyridinyl-1,3-thiazole-4-carboxamide] | > 3.16 | – | –
5 | CC(C)Cc1cn(-c2nc(C(=O)Nc3c(F)cccc3F)cs2)c2cc(Cl)ccc12 [Example 33, 2-[6-Chloro-3-isobutyl-1H-indol-1-yl]-N-(2,6-difluorophenyl)-1,3-thiazole-4-carboxamide] | > 3.16 | ≤ 100 | Ki (human EP1 receptor [2]): ≤ 100 nM
6 | CC(C)Cc1cn(-c2nc(-c3nc4ccccc4[nH]3)co2)c2cc(Cl)ccc12 [Example 36, 2-{2-[6-Chloro-3-isobutyl-1H-indol-1-yl]-1,3-oxazol-4-yl}-1H-benzimidazole hydrochloride] | > 3.16 | ≤ 100 | –
7 | CC(C)Cc1cn(-c2nc(-c3nc4cc(CO)ccc4[nH]3)cs2)c2cc(Cl)ccc12 [Example 45, (2-{2-[6-Chloro-3-isobutyl-1H-indol-1-yl]-1,3-thiazol-4-yl}-1H-benzimidazol-5-yl)methanol hydrochloride] | > 3.16 | ≤ 100 | –
8 | CC(C)Cc1cn(-c2nc(-c3nc4c(CO)cccc4[nH]3)cs2)c2cc(Cl)ccc12 [Example 46, (2-{2-[6-Chloro-3-isobutyl-1H-indol-1-yl]-1,3-thiazol-4-yl}-1H-benzimidazol-4-yl)methanol] | > 3.16 | – | Ki (human EP1 receptor [2]): ≤ 100 nM
9 | CC(C)Cc1cn(-c2nc(-c3nnc[nH]3)cs2)c2cc(Cl)ccc12 [Example 54, 3-[2-(6-Chloro-3-isobutyl-1H-indol-1-yl)-1,3-thiazol-4-yl]-4H-1,2,4-triazole] | > 3.16 | – | –
10 | Cc1nnc(-c2csc(-n3cc(CC(C)C)c4ccc(Cl)cc43)n2)[nH]1 [Example 55, 3-[2-(6-Chloro-3-isobutyl-1H-indol-1-yl)-1,3-thiazol-4-yl]-5-methyl-4H-1,2,4-triazole] | > 3.16 | ≤ 100 | –
11 | CC(=O)OCc1ccc(C(=O)Nc2csc(-n3cc(CC(C)C)c4ccc(Cl)cc43)n2)cc1 [Example 56, {4-[({2-[6-Chloro-3-(2-methylpropyl)-1H-indol-1-yl]-1,3-thiazol-4-yl}amino)carbonyl]phenyl}methyl acetate] | > 3.16 | – | –
12 | Cc1cc(Cl)ccc1S(=O)(=O)NC[C@H]1C2CCC(CC2)[C@@H]1/C=C\CCCC(=O)O [ONO-8711] | – | – | hyperalgesia and allodynia [3]: reduces hyperalgesia and allodynia; mechanical hyperalgesia [4]: inhibits mechanical hyperalgesia
